7 compounds from patent US9751847B2, “Methods and compositions related to neuroactive thiazoline compounds” (University of Utah Research Foundation, priority 2010, dated 2017) can be followed below.

Entries after “also recorded” stand apart in the source; their conditions may differ. Where two headings read alike, the source gives them in different places. Some results are limits rather than exact numbers.

The inhibition is the change of the read-out against control, counted positive when it falls. In general, Ki refers to a dissociation constant, usually derived from enzyme kinetics or from competition with a known ligand.

For experiment [1], the system named is dorsal root ganglia (DRG) cells. Description: Dorsal root ganglion (DRG) assay, Fura-2 intracellular calcium with 25 mM KCl. The format is cell-based, mice. As to conditions: pure compound 20 μg/mL, co-applied with 25 mM KCl, mouse DRG cells. Here is the method: For details of the isolation and culture of dorsal root ganglion neurons see Light et al. Briefly, dorsal root ganglia (DRG) cells from cervical and lumbar regions were obtained from mice and used in an assay with bacterial culture extracts and pure compounds. DRG cells were suspended in medium with additives and loaded with Fura-2 AM (Molecular Probes), a fluorescent dye used to measure intracellular calcium levels. Experiments were performed at room temperature (20 to 25° C.) in a 24-well plate format using fluorescence microscopy. Individual cells were treated as single samples, so that the individual responses of diverse neuron subtypes from the DRG could be examined. After baseline measurements, the cells were treated with 25 mM KCl solution and then washed. After return to baseline, bacterial extracts, fractions, or pure compounds were applied. This solution was then later replaced with 25 mM KCl solution. The use of KCl permitted observation of direct, modulatory, as well as inhibitory and excitatory effects of the samples assayed.
Representative data for assay results obtained with a sample of crude extract (100 μg/mL; FIG. 33), as well as compounds 1, 2, and 8 (20 μg/mL; respectively, […]). The y-axis indicates the ratio between 340 nm and 380 nm fluorescence. A higher value indicates more Ca^2+ in the cell. The x-axis indicates time. Each line indicates an individual DRG cell followed over the experimental time course. In each experiment, KCl is applied either once or twice, the compounds or extracts are incubated with cells, then the compound is co-applied with KCl.
On the technique in general: Calcium flux is commonly read through the fluorescence of an indicator in the cells.

In another experiment the target is 5HT-2B receptor (Homo sapiens, UniProt P41595). Description: PDSP radioligand displacement receptor assay, 5HT2B. Format: binding. As to conditions: for inhibition at 10 µM: primary assay, 10 μM compound; for Ki: secondary binding assay. Here is the method: (§1) Receptor affinity assays were carried out according to methods as described at http://pdsp.med.unc.edu/ (accessed on Oct. 13, 2010).
(§2) Initial hits were obtained in radioligand displacement assays. […] Representative activity is highlighted in the table below showing in radioligand displacement activity at 10 μM of the in dicated compound. Ki was determined as indicated.
On the technique in general: Displacement assays read how much labelled ligand stays bound in the presence of the test substance.

Another experiment concerns the target DAT (Homo sapiens, UniProt Q01959). As to the kind of experiment: PDSP radioligand displacement receptor assay, DAT. As to conditions: for inhibition at 10 µM: radioligand displacement, primary assay, 10 μM compound; for Ki: secondary binding assay, test compound 1 to 10,000 nM. Format: binding. As for the experimental part: as §1, §2
A further experiment addresses histamine H1 receptor (Homo sapiens, UniProt P35367). As to the kind of experiment: PDSP radioligand displacement receptor assay, H1. The format is binding. As to conditions: for inhibition at 10 µM: radioligand displacement, primary assay, 10 μM compound; for Ki: secondary binding assay, test compound 1 to 10,000 nM. As for the experimental part: as §1, §2
The target of the next experiment is kappa opioid receptor (Homo sapiens, UniProt P41145). Description: PDSP radioligand displacement receptor assay, KOR. As to conditions: for inhibition at 10 µM: radioligand displacement, primary assay, 10 μM compound; for Ki: secondary binding assay, test compound 1 to 10,000 nM. The format is binding. Here is the method: as §1, §2
The subject of a further experiment is Ca2+ Channel. Description: PDSP radioligand displacement receptor assay, Ca2+ channel. The format is binding. As to conditions: for inhibition (10 μM) Ca2+ Channel: radioligand displacement, primary assay, 10 μM compound; for Ki: secondary binding assay, test compound 1 to 10,000 nM. Here is the method: as §1, §2
In experiment [2] the test system is other serotonin receptors. As to the kind of experiment: PDSP primary assay, other serotonin receptors. The format is binding. As to conditions: 5HT-2B versus other serotonin receptors. As for the experimental part: as §1, §2
Where [3] appears, read: test compound 1 to 10,000 nM, read-out: Ki (nM) 5HT2B.

5HT-2B receptor, sequence (P41595 whole entry): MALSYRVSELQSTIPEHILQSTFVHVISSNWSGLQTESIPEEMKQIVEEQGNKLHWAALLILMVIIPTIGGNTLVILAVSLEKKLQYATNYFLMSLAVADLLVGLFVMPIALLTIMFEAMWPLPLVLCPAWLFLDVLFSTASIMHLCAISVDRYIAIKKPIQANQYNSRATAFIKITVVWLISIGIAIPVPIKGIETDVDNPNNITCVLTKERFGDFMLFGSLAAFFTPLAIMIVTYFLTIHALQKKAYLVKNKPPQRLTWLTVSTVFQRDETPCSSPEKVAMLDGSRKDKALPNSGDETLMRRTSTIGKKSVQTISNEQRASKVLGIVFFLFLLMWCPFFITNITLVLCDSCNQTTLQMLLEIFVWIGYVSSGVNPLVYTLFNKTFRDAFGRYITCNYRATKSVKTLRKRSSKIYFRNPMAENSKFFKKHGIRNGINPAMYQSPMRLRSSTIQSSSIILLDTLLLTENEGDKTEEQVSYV
DAT, sequence (Q01959 whole entry, species assumed): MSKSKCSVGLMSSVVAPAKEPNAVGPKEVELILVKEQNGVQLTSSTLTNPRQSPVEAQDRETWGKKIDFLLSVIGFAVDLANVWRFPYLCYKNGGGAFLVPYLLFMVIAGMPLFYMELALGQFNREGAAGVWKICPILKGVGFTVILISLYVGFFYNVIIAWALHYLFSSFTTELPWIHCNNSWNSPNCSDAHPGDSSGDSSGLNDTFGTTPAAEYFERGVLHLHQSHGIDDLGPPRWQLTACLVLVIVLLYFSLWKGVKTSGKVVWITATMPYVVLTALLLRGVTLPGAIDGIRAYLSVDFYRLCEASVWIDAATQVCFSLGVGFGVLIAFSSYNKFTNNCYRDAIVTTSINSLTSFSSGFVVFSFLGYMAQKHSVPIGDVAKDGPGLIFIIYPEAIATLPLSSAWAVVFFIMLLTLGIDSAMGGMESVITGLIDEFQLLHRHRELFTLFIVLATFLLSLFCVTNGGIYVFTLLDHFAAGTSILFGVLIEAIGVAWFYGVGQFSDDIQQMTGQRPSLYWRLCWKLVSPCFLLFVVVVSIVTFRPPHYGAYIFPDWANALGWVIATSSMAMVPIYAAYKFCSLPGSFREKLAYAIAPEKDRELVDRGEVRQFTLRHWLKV
kappa opioid receptor, sequence (P41145 whole entry): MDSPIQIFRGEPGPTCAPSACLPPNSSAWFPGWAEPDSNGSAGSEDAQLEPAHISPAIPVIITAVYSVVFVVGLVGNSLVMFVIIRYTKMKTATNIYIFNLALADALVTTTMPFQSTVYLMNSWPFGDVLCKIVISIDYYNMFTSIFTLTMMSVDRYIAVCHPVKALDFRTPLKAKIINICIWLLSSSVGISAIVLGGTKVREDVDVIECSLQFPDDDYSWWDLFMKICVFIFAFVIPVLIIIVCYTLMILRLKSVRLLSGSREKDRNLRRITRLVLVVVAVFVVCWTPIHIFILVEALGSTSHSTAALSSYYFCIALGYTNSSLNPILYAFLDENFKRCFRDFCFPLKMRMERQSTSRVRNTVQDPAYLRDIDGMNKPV
histamine H1 receptor, sequence (P35367 whole entry, species assumed): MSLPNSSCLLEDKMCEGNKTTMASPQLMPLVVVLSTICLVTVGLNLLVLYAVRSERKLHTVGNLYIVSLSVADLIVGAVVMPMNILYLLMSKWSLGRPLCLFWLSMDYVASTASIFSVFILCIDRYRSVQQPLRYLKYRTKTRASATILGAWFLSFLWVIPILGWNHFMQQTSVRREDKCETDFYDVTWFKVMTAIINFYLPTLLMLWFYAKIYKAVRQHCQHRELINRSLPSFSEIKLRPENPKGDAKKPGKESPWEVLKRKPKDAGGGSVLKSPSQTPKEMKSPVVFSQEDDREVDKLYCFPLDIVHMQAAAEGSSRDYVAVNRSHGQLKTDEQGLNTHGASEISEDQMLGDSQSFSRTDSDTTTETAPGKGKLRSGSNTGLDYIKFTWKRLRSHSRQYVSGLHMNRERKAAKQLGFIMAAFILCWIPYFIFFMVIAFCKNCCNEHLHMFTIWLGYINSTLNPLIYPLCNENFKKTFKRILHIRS

Consider `NC(=O)C1CSC(c2ccccc2O)=N1` (stereo not drawn) [Compound 8, 2-(2-hydroxyphenyl)-4,5-dihydrothiazole-4-carboxamide], for which the “response in DRG assay (Ca2+ influx)” value in experiment [1] is reported as “excitatory response; also recorded: increased Ca^2+ influx”. In addition, the inhibition at 10 µM at 5HT-2B receptor (radioligand displacement) is 65.8%; at DAT it was 13.8%; on histamine H1 receptor, 71.6%; on kappa opioid receptor, 50.4%. Also, the Ki turned out to be 1260 nM on 5HT-2B receptor (setting [3]), 678 ± 46 nM at histamine H1 receptor and 3710 nM at kappa opioid receptor. In addition, the “inhibition (10 μM) Ca2+ Channel” value in the experiment with Ca2+ Channel is reported as −3.4%.

Regarding `NC(=O)c1csc(-c2ccccc2O)n1` [Compound 7, 2-(2-hydroxyphenyl)thiazole-4-carboxamide], the inhibition at 10 µM at 5HT-2B receptor (radioligand displacement) was 84.9%; on DAT it was 2.4%; on histamine H1 receptor, 88%; at kappa opioid receptor it was 31.8%. Further, the Ki at 5HT-2B receptor (radioligand displacement, read-out: Ki (nM) vs 5-HT2B) came out at 1030 ± 76 nM; at histamine H1 receptor, 517 ± 28 nM. Also, the “inhibition (10 μM) Ca2+ Channel” value in the experiment with Ca2+ Channel is recorded as 29.6%.

With `OC[C@@H]1CSC(c2ccccc2O)=N1` [Compound 1, (R)-2-(4-(hydroxymethyl)-4,5-dihydrothiazol-2-yl)phenol], the “response in DRG assay (Ca2+ influx)” value in experiment [1] is listed as “excitatory response; also recorded: increased Ca^2+ influx”. In addition, the inhibition at 10 µM was 79.2% on 5HT-2B receptor (radioligand displacement), -1.5% on DAT, 39% on histamine H1 receptor and 57.2% at kappa opioid receptor. For the same compound, the Ki on 5HT-2B receptor (setting [3]) was 1360 nM; at kappa opioid receptor it was greater than 10000 nM. Besides, in the experiment with Ca2+ Channel, the “inhibition (10 μM) Ca2+ Channel” value was −0.7%.

In the case of `C[C@@H]1SC(c2ccccc2O)=N[C@H]1[C@@H]1SC[C@](C)(C(=O)O)N1C` [Compound 9, (2S,4S)-2-((4R,5S)-2-(2-hydroxyphenyl)-5-methyl-4,5-dihydrothiazol-4-yl)-3,4-dimethylthiazolidine-4-carboxylic acid], the inhibition at 10 µM on 5HT-2B receptor (radioligand displacement) was determined as 68%; at DAT, 83.8%; at histamine H1 receptor, 16.3%; at kappa opioid receptor it was 41.4%. Besides, the Ki on 5HT-2B receptor (setting [3]) is 3920 nM; on DAT it was greater than 10000 nM. In the experiment with Ca2+ Channel, the “inhibition (10 μM) Ca2+ Channel” value came to 0.1%.

Turning to `C[C@@H]1SC(c2ccccc2O)=N[C@@H]1CO` [Compound 2, 2-((4R,5S)-4-(hydroxymethyl)-5-methyl-4,5-dihydrothiazol-2-yl)phenol], the “response in DRG assay (Ca2+ influx)” value in experiment [1] is listed as “inhibitory response; also recorded: decreased Ca^2+ influx”. The inhibition at 10 µM was 89.7% at 5HT-2B receptor (radioligand displacement), 6% on DAT, 45.8% on histamine H1 receptor and 60.8% at kappa opioid receptor. The results for the Ki on 5HT-2B receptor (setting [3]), at kappa opioid receptor and at Ca2+ Channel were 505 nM, greater than 10000 nM and 6600 nM, respectively. For the same compound, the “selectivity for the 5HT-2B receptor versus the other serotonin receptors” value in experiment [2] is on record as no less than 20 fold.

With `C[C@@H]1SC(c2ccccc2O)=N[C@H]1[C@H]1SC[C@](C)(C(=O)O)N1C` [Compound 10, (2R,4S)-2-((4R,5S)-2-(2-hydroxyphenyl)-5-methyl-4,5-dihydrothiazol-4-yl)-3,4-dimethylthiazolidine-4-carboxylic acid], the inhibition at 10 µM on 5HT-2B receptor (radioligand displacement) is 40.3%; at DAT, -0.3%; at histamine H1 receptor it was -3%; at kappa opioid receptor, 31.9%. Moreover, the Ki on 5HT-2B receptor (setting [3]) stood at 4700 nM; at Ca2+ Channel, 9750 nM. The “inhibition (10 μM) Ca2+ Channel” value in the experiment with Ca2+ Channel came to 110.4%.

With `Cc1sc(-c2ccccc2O)nc1C=O` [Compound 5, 2-(2-hydroxyphenyl)-5-methylthiazole-4-carbaldehyde], the inhibition at 10 µM was 77% at 5HT-2B receptor (radioligand displacement), 88.3% at DAT, 42.5% on histamine H1 receptor and 37.1% at kappa opioid receptor. The Ki on 5HT-2B receptor (setting [3]) stood at 1540 nM; at DAT, 5180 nM. In the experiment with Ca2+ Channel, the “inhibition (10 μM) Ca2+ Channel” value is on record as −18.9%.
